# Test results: publication PMC10945555, “Improving Activity of New Arylurea Agents against Multidrug-Resistant and Biofilm-Producing Staphylococcus epidermidis” (ACS Medicinal Chemistry Letters, 2024)
# Assays:
# [1] = tested on: biofilm-producing Staphylococcus epidermidis strains; assay: Biofilm eradication (MBEC Assay Kit); format: cell-based; settings: for MBEC50: Table S4 strains
# horse red blood cells = assay: Hemolytic activity assay; settings: for %hem (hemolytic activity): 200 μM, 1 h, n = 3; for lysis of erythrocytes: concentrations up to 200 μM
# Method: 2.3.3 Hemolytic activity assay
# The hemolytic properties of tested compound were evaluated according to previously reported procedure.6 Defibrinated horse red blood cells purchased from Thermo Fisher Scientific (Germany) were washed with PBS (3000 rpm, 10 min at 4 °C) for three times followed by PBS dilution to obtain a 8% suspension. Then, 100 μL of the resulting suspensions […]
# were treated with 100 μL of tested compound at the final concentration of 200 μM, and incubated at 37 °C for 1 h. Triton X-100 (2%) and PBS were used as positive and negative controls, respectively. After centrifugation at 3000 rpm for 3 min, 100 μL of the supernatants were transferred to a 96 well microtiter plate and the hemoglobin release was determined in a SpectraMax iD3 reader (Molecular Devices) by absorption at 540 nm. […]
# [2] = S. epidermidis ATCC 35984 (Table S4)
smiles,measurement,setting,value
O=S(=O)(NC1CCN(CCC(Oc2ccc(C(F)(F)F)cc2)c2cccs2)CC1)c1cccc(Cl)c1 (stereo not shown) [Compound 14],MBEC,[1]; [2],31.25 µg/mL
same,MBEC50,[1],125 µg/mL
same,MBEC,[1]; clinical strain 1 (Table S4),125 µg/mL
same,MBEC,[1]; clinical strain 2 (Table S4),125 µg/mL
same,MBEC,[1]; clinical strain 3 (Table S4),250 µg/mL
same,MBEC,[1]; clinical strain 4 (Table S4),125 µg/mL
same,MBEC,[1]; clinical strain 5 (Table S4),125 µg/mL
same,MBEC,[1]; clinical strain 6 (Table S4),125 µg/mL
same,MBEC,[1]; clinical strain 7 (Table S4),125 µg/mL
same,MBEC,[1]; clinical strain 8 (Table S4),31.25 µg/mL
same,MBEC,[1]; clinical strain 9 (Table S4),250 µg/mL
same,MBEC,[1]; clinical strain 11 (Table S4),250 µg/mL
same,MBEC,[1]; clinical strain 12 (Table S4),125 µg/mL
same,MBEC,[1]; clinical strain 13 (Table S4),62.5 µg/mL
same,MBEC,[1]; clinical strain 15 (Table S4),125 µg/mL
same,MBEC,[1]; clinical strain 16 (Table S4),62.5 µg/mL
same,MBEC,[1]; clinical strain 17 (Table S4),62.5 µg/mL
same,MBEC,[1]; clinical strain 19 (Table S4),31.25 µg/mL
same,MBEC,[1]; clinical strain 21 (Table S4),125 µg/mL
same,MBEC,[1]; clinical strain 22 (Table S4),125 µg/mL
same,MBEC,[1]; clinical strain 23 (Table S4),15.6 µg/mL
same,MBEC,[1]; clinical strain 25 (Table S4),31.25 µg/mL
same,MBEC,[1]; clinical strain 26 (Table S4),250 µg/mL
same,MBEC,[1]; clinical strain 27 (Table S4),250 µg/mL
same,MBEC,[1]; clinical strain 28 (Table S4),125 µg/mL
same,MBEC,[1]; clinical strain 29 (Table S4),125 µg/mL
same,MBEC,[1]; clinical strain 30 (Table S4),125 µg/mL
same,MBEC,[1]; clinical strain 33 (Table S4),125 µg/mL
same,MBEC,[1]; clinical strain 35 (Table S4),125 µg/mL
same,MBEC,[1]; clinical strain 36 (Table S4),125 µg/mL
same,MBEC,[1]; clinical strain 37 (Table S4),125 µg/mL
same,MBEC,[1]; clinical strain 39 (Table S4),31.25 µg/mL
same,MBEC,[1]; clinical strain 40 (Table S4),125 µg/mL
same,MBEC,[1]; clinical strain 41 (Table S4),125 µg/mL
same,MBEC,[1]; clinical strain 42 (Table S4),125 µg/mL
same,MBEC,[1]; clinical strain 43 (Table S4),250 µg/mL
same,MBEC,[1]; clinical strain 44 (Table S4),62.5 µg/mL
same,MBEC,[1]; clinical strain 45 (Table S4),125 µg/mL
same,MBEC,[1]; clinical strain 46 (Table S4),125 µg/mL
same,MBEC,[1]; clinical strain 47 (Table S4),62.5 µg/mL
same,MBEC,[1]; clinical strain 49 (Table S4),31.25 µg/mL
same,MBEC,[1]; clinical strain 51 (Table S4),125 µg/mL
same,MBEC,[1]; clinical strain 55 (Table S4),125 µg/mL
same,MBEC,[1]; clinical strain 58 (Table S4),125 µg/mL
same,MBEC,[1]; clinical strain 59 (Table S4),125 µg/mL
same,MBEC,[1]; clinical strain 65 (Table S4),125 µg/mL
same,MBEC,[1]; clinical strain 66 (Table S4),125 µg/mL
same,MBEC,[1]; clinical strain 67 (Table S4),125 µg/mL
same,MBEC,[1]; clinical strain 70 (Table S4),250 µg/mL
same,MBEC,[1]; clinical strain 73 (Table S4),31.25 µg/mL
same,MBEC,[1]; clinical strain 74 (Table S4),125 µg/mL
same,MBEC,[1]; clinical strain 75 (Table S4),31.25 µg/mL
same,MBEC,[1]; clinical strain 78 (Table S4),31.25 µg/mL
same,MBEC,[1]; clinical strain 79 (Table S4),31.25 µg/mL
same,%hem (hemolytic activity),horse red blood cells,0.27%
same,lysis of erythrocytes,horse red blood cells,None of them caused lysis of erythrocytes
O=S(=O)(NC1CCN(CCC(Oc2ccc(C(F)(F)F)cc2)c2ccccc2)CC1)c1cccc(Cl)c1 (stereo not shown) [Compound 12],MBEC,[1]; [2],31.25 µg/mL
same,MBEC50,[1],125 µg/mL
same,MBEC,[1]; clinical strain 1 (Table S4),125 µg/mL
same,MBEC,[1]; clinical strain 2 (Table S4),125 µg/mL
same,MBEC,[1]; clinical strain 3 (Table S4),250 µg/mL
same,MBEC,[1]; clinical strain 4 (Table S4),125 µg/mL
same,MBEC,[1]; clinical strain 5 (Table S4),125 µg/mL
same,MBEC,[1]; clinical strain 6 (Table S4),125 µg/mL
same,MBEC,[1]; clinical strain 7 (Table S4),125 µg/mL
same,MBEC,[1]; clinical strain 8 (Table S4),62.5 µg/mL
same,MBEC,[1]; clinical strain 9 (Table S4),250 µg/mL
same,MBEC,[1]; clinical strain 11 (Table S4),125 µg/mL
same,MBEC,[1]; clinical strain 12 (Table S4),125 µg/mL
same,MBEC,[1]; clinical strain 13 (Table S4),62.5 µg/mL
same,MBEC,[1]; clinical strain 15 (Table S4),125 µg/mL
same,MBEC,[1]; clinical strain 16 (Table S4),62.5 µg/mL
same,MBEC,[1]; clinical strain 17 (Table S4),62.5 µg/mL
same,MBEC,[1]; clinical strain 19 (Table S4),31.25 µg/mL
same,MBEC,[1]; clinical strain 21 (Table S4),125 µg/mL
same,MBEC,[1]; clinical strain 22 (Table S4),125 µg/mL
same,MBEC,[1]; clinical strain 23 (Table S4),31.25 µg/mL
same,MBEC,[1]; clinical strain 25 (Table S4),31.25 µg/mL
same,MBEC,[1]; clinical strain 26 (Table S4),250 µg/mL
same,MBEC,[1]; clinical strain 27 (Table S4),250 µg/mL
same,MBEC,[1]; clinical strain 28 (Table S4),125 µg/mL
same,MBEC,[1]; clinical strain 29 (Table S4),125 µg/mL
same,MBEC,[1]; clinical strain 30 (Table S4),125 µg/mL
same,MBEC,[1]; clinical strain 33 (Table S4),125 µg/mL
same,MBEC,[1]; clinical strain 35 (Table S4),125 µg/mL
same,MBEC,[1]; clinical strain 36 (Table S4),125 µg/mL
same,MBEC,[1]; clinical strain 37 (Table S4),125 µg/mL
same,MBEC,[1]; clinical strain 39 (Table S4),31.25 µg/mL
same,MBEC,[1]; clinical strain 40 (Table S4),125 µg/mL
same,MBEC,[1]; clinical strain 41 (Table S4),125 µg/mL
same,MBEC,[1]; clinical strain 42 (Table S4),125 µg/mL
same,MBEC,[1]; clinical strain 43 (Table S4),250 µg/mL
same,MBEC,[1]; clinical strain 44 (Table S4),31.25 µg/mL
same,MBEC,[1]; clinical strain 45 (Table S4),125 µg/mL
same,MBEC,[1]; clinical strain 46 (Table S4),125 µg/mL
same,MBEC,[1]; clinical strain 47 (Table S4),62.5 µg/mL
same,MBEC,[1]; clinical strain 49 (Table S4),31.25 µg/mL
same,MBEC,[1]; clinical strain 51 (Table S4),250 µg/mL
same,MBEC,[1]; clinical strain 55 (Table S4),125 µg/mL
same,MBEC,[1]; clinical strain 58 (Table S4),125 µg/mL
same,MBEC,[1]; clinical strain 59 (Table S4),125 µg/mL
same,MBEC,[1]; clinical strain 65 (Table S4),125 µg/mL
same,MBEC,[1]; clinical strain 66 (Table S4),125 µg/mL
same,MBEC,[1]; clinical strain 67 (Table S4),125 µg/mL
same,MBEC,[1]; clinical strain 70 (Table S4),250 µg/mL
same,MBEC,[1]; clinical strain 73 (Table S4),31.25 µg/mL
same,MBEC,[1]; clinical strain 74 (Table S4),125 µg/mL
same,MBEC,[1]; clinical strain 75 (Table S4),31.25 µg/mL
same,MBEC,[1]; clinical strain 78 (Table S4),31.25 µg/mL
same,MBEC,[1]; clinical strain 79 (Table S4),31.25 µg/mL
same,%hem (hemolytic activity),horse red blood cells,0.48%
same,lysis of erythrocytes,horse red blood cells,None of them caused lysis of erythrocytes
